Results: ChEMBL document CHEMBL1150976, “The selectivity of protein kinase inhibitors: a further update” (Biochem J, 2007)

Legend:
[1] = target: Mitogen-activated protein kinase 10 (Homo sapiens) (UniProt P53779); assay: Percentage JNK3 activity remaining in the presence of 0.1uM inhibitor
[2] = target: T1, Mitogen-activated protein kinase 13 (Homo sapiens) (UniProt O15264); assay: Percentage p38delta activity remaining in the presence of 0.1uM inhibitor
T1 sequence (whole entry): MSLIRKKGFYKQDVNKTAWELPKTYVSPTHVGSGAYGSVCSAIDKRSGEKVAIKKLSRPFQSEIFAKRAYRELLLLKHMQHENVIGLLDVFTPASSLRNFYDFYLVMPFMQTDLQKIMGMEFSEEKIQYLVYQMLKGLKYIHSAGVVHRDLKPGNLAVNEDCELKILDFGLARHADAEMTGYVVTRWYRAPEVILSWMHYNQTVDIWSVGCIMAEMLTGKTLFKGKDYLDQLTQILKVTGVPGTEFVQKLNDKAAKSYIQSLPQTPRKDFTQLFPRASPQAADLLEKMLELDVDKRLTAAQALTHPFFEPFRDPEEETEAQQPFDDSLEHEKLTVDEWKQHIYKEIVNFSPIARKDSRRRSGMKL

[3] = target: Ribosomal protein S6 kinase beta-1 (Homo sapiens, UniProt P23443); assay: Percentage S6K1 activity remaining in the presence of 0.1uM inhibitor
Sequence of Ribosomal protein S6 kinase beta-1 (P23443 whole entry, looked up): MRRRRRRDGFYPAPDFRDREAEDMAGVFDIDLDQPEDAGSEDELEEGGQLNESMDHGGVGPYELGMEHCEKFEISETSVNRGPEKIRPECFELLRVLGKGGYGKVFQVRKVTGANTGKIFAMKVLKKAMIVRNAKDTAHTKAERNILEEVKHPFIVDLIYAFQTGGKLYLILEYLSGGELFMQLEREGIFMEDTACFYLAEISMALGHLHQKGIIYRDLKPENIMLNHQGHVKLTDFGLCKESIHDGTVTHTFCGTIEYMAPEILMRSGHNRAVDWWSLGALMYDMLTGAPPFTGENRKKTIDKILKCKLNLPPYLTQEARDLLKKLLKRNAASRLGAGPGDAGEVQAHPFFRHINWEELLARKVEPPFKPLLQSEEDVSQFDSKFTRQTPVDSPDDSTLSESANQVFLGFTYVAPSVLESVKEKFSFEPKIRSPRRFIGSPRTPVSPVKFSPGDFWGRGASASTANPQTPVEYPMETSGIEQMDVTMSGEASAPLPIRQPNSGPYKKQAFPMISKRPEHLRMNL

[4] = target: Mitogen-activated protein kinase 9 (Homo sapiens, UniProt P45984); assay: Percentage JNK2 activity remaining in the presence of 0.1uM inhibitor
[5] = target: Serine/threonine-protein kinase PAK 4 (Homo sapiens, UniProt O96013); assay: Percentage PAK4 activity remaining in the presence of 0.1uM inhibitor
[6] = target: SRSF protein kinase 1 (Homo sapiens) (UniProt Q96SB4); assay: Percentage SRPK1 activity remaining in the presence of 0.1uM inhibitor
[7] = target: Mitogen-activated protein kinase 14 (Homo sapiens, UniProt Q16539); assay: Percentage p38alpha activity remaining in the presence of 0.1uM inhibitor
[8] = target: Calcium/calmodulin-dependent protein kinase type 1 (Homo sapiens) (UniProt Q14012); assay: Percentage CaMK1 activity remaining in the presence of 0.1uM inhibitor
Sequence of Calcium/calmodulin-dependent protein kinase type 1 (Homo sapiens) (Q14012 whole entry, looked up): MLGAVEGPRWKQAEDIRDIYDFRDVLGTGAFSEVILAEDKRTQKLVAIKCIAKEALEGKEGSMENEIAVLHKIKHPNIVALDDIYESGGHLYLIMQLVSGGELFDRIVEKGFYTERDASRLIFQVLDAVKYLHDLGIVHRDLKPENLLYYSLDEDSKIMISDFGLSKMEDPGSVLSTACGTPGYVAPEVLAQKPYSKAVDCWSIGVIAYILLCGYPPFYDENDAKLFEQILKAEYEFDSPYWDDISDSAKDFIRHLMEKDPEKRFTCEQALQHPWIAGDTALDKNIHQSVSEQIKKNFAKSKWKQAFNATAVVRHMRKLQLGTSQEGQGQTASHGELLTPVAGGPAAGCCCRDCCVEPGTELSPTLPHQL

[9] = target: Serine/threonine-protein kinase Chk2 (Homo sapiens) (UniProt O96017); assay: Percentage CHK2 activity remaining in the presence of 0.1uM inhibitor
[10] = target: MAP kinase-interacting serine/threonine-protein kinase 2 (Homo sapiens) (UniProt Q9HBH9); assay: Percentage MNK2 activity remaining in the presence of 0.1uM inhibitor
[11] = target: Ribosomal protein S6 kinase alpha-1 (Homo sapiens) (UniProt Q15418); assay: Percentage RSK1 activity remaining in the presence of 0.1uM inhibitor
Sequence of Ribosomal protein S6 kinase alpha-1 (Homo sapiens) (Q15418 whole entry): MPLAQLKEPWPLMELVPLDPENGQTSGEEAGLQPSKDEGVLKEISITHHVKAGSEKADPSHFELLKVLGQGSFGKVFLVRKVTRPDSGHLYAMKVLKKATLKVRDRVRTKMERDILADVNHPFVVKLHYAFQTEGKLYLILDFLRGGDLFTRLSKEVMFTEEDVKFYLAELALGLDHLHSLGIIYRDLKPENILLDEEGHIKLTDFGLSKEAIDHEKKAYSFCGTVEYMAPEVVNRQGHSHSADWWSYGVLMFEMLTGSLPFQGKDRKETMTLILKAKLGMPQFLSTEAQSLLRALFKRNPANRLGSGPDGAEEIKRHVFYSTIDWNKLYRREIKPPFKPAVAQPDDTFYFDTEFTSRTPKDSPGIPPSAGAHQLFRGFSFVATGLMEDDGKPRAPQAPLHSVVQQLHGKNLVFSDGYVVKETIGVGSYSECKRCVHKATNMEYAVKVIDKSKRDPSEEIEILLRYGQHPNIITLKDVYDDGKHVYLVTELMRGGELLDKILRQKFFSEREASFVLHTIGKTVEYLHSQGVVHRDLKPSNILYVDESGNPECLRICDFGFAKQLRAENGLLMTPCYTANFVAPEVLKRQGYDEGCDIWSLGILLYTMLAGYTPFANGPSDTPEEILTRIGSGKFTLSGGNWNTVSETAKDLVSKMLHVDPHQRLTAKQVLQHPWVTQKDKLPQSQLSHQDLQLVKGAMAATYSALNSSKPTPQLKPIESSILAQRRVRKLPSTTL

[12] = target: T2, Serine/threonine-protein kinase 3 (Homo sapiens) (UniProt Q13188); assay: Percentage MST2 activity remaining in the presence of 0.1uM inhibitor
T2 sequence (whole entry): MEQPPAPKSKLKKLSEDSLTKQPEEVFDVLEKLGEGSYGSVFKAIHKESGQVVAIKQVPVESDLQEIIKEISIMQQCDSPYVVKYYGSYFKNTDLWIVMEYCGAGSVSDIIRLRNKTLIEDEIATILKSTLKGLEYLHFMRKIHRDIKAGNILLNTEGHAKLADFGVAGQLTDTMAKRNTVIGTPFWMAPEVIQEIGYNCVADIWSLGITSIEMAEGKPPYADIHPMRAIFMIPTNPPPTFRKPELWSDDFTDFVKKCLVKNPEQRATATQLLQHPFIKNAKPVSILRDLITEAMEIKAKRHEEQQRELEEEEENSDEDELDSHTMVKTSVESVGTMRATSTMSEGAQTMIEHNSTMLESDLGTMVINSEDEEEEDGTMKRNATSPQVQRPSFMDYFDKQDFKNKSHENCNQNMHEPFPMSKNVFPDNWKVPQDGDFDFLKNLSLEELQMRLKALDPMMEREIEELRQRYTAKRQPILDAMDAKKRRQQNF

[13] = target: Calcium/calmodulin-dependent protein kinase kinase 1 (Homo sapiens) (UniProt Q8N5S9); assay: Percentage CaMKKalpha activity remaining in the presence of 0.1uM inhibitor
Sequence of Calcium/calmodulin-dependent protein kinase kinase 1 (Homo sapiens) (Q8N5S9 whole entry, looked up): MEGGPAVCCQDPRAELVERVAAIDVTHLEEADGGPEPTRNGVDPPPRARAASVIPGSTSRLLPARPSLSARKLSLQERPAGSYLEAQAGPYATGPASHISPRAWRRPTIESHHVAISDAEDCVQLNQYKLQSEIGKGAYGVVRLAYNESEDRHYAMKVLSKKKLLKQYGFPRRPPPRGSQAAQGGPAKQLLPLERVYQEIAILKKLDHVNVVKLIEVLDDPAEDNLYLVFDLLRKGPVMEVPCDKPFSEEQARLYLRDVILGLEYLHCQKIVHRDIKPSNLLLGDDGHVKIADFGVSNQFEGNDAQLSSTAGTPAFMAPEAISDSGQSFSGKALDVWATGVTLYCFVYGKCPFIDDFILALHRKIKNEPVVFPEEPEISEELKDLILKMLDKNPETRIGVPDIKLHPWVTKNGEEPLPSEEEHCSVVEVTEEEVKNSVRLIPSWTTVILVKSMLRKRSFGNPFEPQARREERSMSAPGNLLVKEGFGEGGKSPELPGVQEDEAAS

[14] = target: Rho-associated protein kinase 2 (Homo sapiens) (UniProt O75116); assay: Percentage ROCK2 activity remaining in the presence of 0.1uM inhibitor
Sequence of Rho-associated protein kinase 2 (Homo sapiens) (O75116 whole entry, looked up): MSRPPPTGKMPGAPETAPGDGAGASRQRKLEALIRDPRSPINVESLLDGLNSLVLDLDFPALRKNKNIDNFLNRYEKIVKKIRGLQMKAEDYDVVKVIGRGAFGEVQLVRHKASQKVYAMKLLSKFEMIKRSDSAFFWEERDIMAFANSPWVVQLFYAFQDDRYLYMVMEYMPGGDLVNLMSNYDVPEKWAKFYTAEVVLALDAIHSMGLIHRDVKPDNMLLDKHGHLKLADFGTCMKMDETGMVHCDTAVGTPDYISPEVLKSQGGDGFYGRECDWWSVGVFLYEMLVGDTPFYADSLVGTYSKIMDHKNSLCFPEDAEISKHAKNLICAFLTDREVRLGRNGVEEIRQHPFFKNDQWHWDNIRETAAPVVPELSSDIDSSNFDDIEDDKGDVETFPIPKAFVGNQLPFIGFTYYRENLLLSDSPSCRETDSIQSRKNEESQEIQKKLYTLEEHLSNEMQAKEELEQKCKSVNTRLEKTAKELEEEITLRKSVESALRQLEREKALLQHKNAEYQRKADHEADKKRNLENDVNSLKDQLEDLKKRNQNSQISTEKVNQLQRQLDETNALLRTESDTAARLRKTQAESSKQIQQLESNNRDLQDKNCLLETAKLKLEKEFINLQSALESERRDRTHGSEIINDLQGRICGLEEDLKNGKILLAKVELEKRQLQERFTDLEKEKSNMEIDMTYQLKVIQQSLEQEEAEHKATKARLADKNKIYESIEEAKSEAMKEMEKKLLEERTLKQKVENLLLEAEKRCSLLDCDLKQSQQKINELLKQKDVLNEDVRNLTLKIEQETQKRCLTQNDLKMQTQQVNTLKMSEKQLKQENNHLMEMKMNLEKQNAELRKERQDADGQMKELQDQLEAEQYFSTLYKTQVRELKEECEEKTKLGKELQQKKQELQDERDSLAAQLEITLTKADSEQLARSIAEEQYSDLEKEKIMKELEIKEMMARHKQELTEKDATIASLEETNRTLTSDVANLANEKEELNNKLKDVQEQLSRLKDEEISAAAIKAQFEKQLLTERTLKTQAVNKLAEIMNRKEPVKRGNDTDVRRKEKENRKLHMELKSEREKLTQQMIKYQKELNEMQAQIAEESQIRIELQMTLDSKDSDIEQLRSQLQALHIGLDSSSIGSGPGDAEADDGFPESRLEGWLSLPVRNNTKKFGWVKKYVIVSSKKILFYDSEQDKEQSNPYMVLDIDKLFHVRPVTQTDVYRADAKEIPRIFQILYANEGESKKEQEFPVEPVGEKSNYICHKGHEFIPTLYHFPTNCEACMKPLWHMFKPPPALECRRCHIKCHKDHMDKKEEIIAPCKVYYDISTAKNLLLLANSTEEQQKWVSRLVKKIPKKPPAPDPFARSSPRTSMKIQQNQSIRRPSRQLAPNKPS

[15] = target: Tyrosine-protein kinase CSK (Homo sapiens, UniProt P41240); assay: Percentage CSK activity remaining in the presence of 0.1uM inhibitor
[16] = target: T3, Dual specificity tyrosine-phosphorylation-regulated kinase 3 (Homo sapiens) (UniProt O43781); assay: Percentage DYRK3 activity remaining in the presence of 0.1uM inhibitor
T3 sequence (whole entry): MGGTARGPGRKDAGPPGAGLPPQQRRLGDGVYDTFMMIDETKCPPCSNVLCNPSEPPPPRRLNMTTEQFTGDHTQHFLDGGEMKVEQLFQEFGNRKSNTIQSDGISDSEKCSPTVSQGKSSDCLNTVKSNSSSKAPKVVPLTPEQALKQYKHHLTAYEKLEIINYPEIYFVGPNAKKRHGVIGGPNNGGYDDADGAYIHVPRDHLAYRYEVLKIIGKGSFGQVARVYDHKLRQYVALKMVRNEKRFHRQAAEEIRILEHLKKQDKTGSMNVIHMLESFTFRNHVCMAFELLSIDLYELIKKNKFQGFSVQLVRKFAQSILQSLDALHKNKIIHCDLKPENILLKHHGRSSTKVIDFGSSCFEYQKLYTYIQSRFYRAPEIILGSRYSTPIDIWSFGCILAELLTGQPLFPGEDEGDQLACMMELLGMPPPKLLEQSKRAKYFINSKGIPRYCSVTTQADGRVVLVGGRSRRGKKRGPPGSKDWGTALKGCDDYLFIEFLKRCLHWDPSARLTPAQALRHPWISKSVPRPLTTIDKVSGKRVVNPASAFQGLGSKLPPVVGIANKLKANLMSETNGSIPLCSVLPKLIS

[17] = target: MAP/microtubule affinity-regulating kinase 3 (Homo sapiens) (UniProt P27448); assay: Percentage MARK3 activity remaining in the presence of 0.1uM inhibitor
Sequence of MAP/microtubule affinity-regulating kinase 3 (Homo sapiens) (P27448 whole entry, looked up): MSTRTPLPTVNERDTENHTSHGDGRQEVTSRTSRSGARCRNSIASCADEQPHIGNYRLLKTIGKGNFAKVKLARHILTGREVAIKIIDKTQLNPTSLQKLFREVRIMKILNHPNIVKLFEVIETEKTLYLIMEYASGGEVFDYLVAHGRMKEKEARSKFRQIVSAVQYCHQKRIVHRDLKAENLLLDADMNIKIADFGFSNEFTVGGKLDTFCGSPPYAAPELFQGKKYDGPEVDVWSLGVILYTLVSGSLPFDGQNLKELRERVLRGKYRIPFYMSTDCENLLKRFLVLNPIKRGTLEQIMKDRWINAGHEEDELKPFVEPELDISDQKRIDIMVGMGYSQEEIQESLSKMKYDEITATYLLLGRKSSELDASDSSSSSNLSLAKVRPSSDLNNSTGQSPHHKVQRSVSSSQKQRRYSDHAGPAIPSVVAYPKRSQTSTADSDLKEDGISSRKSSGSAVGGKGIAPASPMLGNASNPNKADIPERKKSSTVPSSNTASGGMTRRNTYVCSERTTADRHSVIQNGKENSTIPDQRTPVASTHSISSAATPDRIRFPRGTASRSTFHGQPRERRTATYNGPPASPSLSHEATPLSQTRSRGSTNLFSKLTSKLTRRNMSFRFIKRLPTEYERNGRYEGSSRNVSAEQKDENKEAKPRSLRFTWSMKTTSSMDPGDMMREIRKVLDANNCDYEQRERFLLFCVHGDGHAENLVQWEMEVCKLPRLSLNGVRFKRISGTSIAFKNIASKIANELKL

[18] = target: T4, Serine/threonine-protein kinase Sgk1 (Homo sapiens) (UniProt O00141); assay: Percentage SGK1 activity remaining in the presence of 0.1uM inhibitor
T4 sequence (whole entry): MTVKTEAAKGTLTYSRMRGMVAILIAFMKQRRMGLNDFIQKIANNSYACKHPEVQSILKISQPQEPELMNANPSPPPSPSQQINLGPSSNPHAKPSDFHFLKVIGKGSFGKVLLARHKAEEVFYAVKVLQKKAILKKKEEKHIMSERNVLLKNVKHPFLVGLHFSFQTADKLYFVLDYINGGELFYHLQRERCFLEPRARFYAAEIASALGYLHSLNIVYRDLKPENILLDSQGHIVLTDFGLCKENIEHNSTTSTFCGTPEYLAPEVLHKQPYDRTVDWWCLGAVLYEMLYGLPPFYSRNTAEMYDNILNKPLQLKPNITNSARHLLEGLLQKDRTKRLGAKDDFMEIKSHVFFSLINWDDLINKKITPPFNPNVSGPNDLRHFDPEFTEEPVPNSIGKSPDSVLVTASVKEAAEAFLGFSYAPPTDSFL

Sequence of Mitogen-activated protein kinase 10 (Homo sapiens) (P53779 whole entry): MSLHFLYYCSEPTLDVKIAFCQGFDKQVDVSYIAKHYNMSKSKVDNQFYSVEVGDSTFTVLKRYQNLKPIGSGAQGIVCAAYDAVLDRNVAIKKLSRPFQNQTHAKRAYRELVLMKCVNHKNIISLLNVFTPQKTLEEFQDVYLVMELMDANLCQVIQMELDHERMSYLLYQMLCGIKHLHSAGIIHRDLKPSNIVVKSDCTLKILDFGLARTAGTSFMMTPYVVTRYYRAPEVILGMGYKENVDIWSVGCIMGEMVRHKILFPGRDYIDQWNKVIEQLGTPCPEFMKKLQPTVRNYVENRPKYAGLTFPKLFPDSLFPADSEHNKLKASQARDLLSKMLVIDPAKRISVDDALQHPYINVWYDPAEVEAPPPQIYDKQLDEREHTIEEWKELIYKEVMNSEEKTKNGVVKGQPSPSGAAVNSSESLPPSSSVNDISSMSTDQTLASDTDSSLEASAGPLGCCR

Row | Compound | Activity [1] | Activity [2] | Activity [3] | Activity [4] | Activity [6] | Activity [7] | Activity [8] | Activity [9] | Activity [10] | Activity [12] | Activity [13] | Activity [14] | Activity [15] | Activity [16] | Activity [17] | Activity [18] | Activity ([3]; filed as antagonist) | Activity ([11]; filed as antagonist) | Activity ([12]; filed as antagonist) | Activity [5] | other results
1 | CC(C)[C@H](CO)Nc1nc(Nc2cccc(Cl)c2)c2ncn(C(C)C)c2n1 [PURVALANOLA] | 100% | 98% | 87% | 96% | 79% | 95% | 99% | 94% | 98% | 60% | 76% | 93% | 82% | 89% | 89% | 82% |  |  |  |  | Activity ([5]; filed as antagonist): 43%; Activity [11]: 74%
2 | Cn1c2ccccc2c2c3c(c4c5ccccc5n(CCC#N)c4c21)CNC3=O | 79% | 82% |  | 68% | 92% | 100% | 98% |  |  |  |  |  | 75% |  |  |  | 12% | 6% | 3% |  | Activity ([5]; filed as antagonist): 5%; Activity ([9]; filed as antagonist): 43%; Activity ([10]; filed as antagonist): 30%; Activity ([13]; filed as antagonist): 27%; Activity ([16]; filed as antagonist): 28%; Activity ([17]; filed as antagonist): 12%; Activity ([18]; filed as antagonist): 44%
3 | Cn1cc(C2=C(c3cn(CCCSC(=N)N)c4ccccc34)C(=O)NC2=O)c2ccccc21 | 102% | 92% |  | 92% | 82% | 102% | 91% | 99% | 103% | 80% | 104% | 88% | 77% | 55% | 77% |  | 20% | 11% |  | 75% | Activity ([18]; filed as antagonist): 39%
4 | O=C(NCCCNc1nc(Nc2cccc(NC(=O)N3CCCC3)c2)ncc1I)c1cccs1 | 93% | 76% | 84% | 70% | 86% | 87% | 71% |  |  | 92% | 69% |  | 101% | 65% |  |  |  |  |  | 71% | Activity ([9]; filed as antagonist): 46%; Activity ([10]; filed as antagonist): 19%; Activity [11]: 55%; Activity ([14]; filed as antagonist): 28%; Activity ([17]; filed as antagonist): 3%; Activity ([18]; filed as antagonist): 48%
5 | CN(C)C[C@@H]1CCn2cc(c3ccccc32)C2=C(C(=O)NC2=O)c2cn(c3ccccc23)CCO1 | 112% |  | 52% | 99% |  |  |  | 92% | 101% |  | 97% | 94% | 78% | 64% | 73% | 66% |  | 10% | 37% | 75% | 
6 | CC(C)CCN1c2nc(Nc3cc(F)c(O)c(F)c3)ncc2N(C)C(=O)C1C (stereo unspecified) | 97% | 105% | 119% | 115% | 94% | 88% | 103% | 96% | 96% |  | 92% | 84% | 99% | 91% | 79% | 112% |  | 1% | 41% | 81% | 
7 | Cc1n[nH]c2ccc(-c3cncc(OC[C@@H](N)Cc4c[nH]c5ccccc45)c3)cc12 | 86% | 68% |  | 78% | 91% | 92% | 77% | 95% | 80% |  | 117% |  | 93% |  | 83% | 53% | 32% | 32% | 29% | 90% | Activity ([14]; filed as antagonist): 8%; Activity ([16]; filed as antagonist): 8%
